The values that follow come from US20250084095A1, “Aminopyrimidine Derivatives as Cyclin-Dependent Kinase Inhibitors” (Accutar Biotechnology Inc., priority 2023, published 2025).

Broadly, the IC50 is the point on the concentration scale where inhibition reaches its midpoint. As a reminder, the CLint scaled is a measure of how fast metabolising enzymes remove a compound, apart from limits set by blood flow. By half-life is commonly meant the time in which the quantity being followed falls by half.

In one series the target is CDK9-CYCLIN T1 (Homo sapiens (Human), UniProt P50750). Put plainly: CDK protein kinase inhibition by the ADP-Glo Assay, CDK9-CYCLIN T1. To be noted: 1000 μM ATP. It counts as biochemical. How it is done:
This ADP-Glo assay measures ADP formed from a kinase reaction and indirectly quantifies the phosphorylation of peptide substrates by the CDK/cyclin protein complexes. The typical assays were carried out in Nanosyn by combining kinase/cyclin complexes, substrates, compounds, and cofactors (ATP and Mg2+) in a well of a 384-well microtiter plate (Coming 3824) and incubating at 22° C. (Table 4). At the end of the incubation, the reaction is quenched, and conversion is detected by luminescence using the Promega ADP-Glo™ Kinase Assay kit (catalog #V9102). Briefly, 5 μL of 1× enzyme and substrate buffer (or control), 50 nL of 100× compound, and 0.5 μL of 10 mM ATP were sequentially added to a well of a 384-well plate.
The Final assay buffer mixture contains: 100 mM HEPES, pH 7.5, 0.1% BSA, 0.01% Triton X-100, 1 mM DTT, 5 mM MgCl2, 10 μM Sodium Orthovanadate, 10 μM Beta-Glycerophosphate, 1000 μM Ultra Pure ATP (provided in the Promega ADP-Glo™ Kinase Assay kit), and 1% DMSO (from compound).
Upon completion, 5 μL of the ADP Glo reagent was added to each well and the plate was further incubated at room temperature for 45 min. 10 μL of the Kinase Detection Reagent was subsequently added to each well. After 10 min of incubation, the plate was read and analyzed on the BioTek Synergy microplate reader using BioTek Gen5 software.
Background: In ADP-Glo the light output rises with the ADP produced.

The nature of another series: in vitro. As to conditions: both, human, hepatocytes.
Series [1] is described as follows: Human hepatocyte stability assay. As to conditions: human hepatocytes, 1 μM, 120 min incubation.
Protocol: (§1) Human hepatocyte stability assay was performed at Pharmaron. Human hepatocytes from mixed genders were purchased from BioIVT (Product #X008001). Compounds and positive control were incubated with human hepatocytes. Verapmil was used as a positive control. […] An aliquot of 100 μL of the supernatant was diluted by 100 μL ultra-pure water, and the mixture was used for LC/MS/MS analysis. The percent of parent remaining, intrinsic clearance (CLint) and tr2 were calculated.

Sequence of CDK9-CYCLIN T1 (P50750 whole entry): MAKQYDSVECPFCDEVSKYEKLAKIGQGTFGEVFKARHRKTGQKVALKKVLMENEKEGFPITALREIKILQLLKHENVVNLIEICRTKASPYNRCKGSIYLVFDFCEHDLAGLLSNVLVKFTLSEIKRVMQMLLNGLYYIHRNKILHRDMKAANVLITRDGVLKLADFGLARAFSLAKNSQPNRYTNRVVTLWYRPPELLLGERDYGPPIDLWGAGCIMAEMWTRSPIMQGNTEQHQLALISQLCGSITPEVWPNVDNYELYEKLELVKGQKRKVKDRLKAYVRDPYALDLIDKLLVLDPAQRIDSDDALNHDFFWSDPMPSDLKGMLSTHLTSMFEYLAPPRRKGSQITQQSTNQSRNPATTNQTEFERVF
Sequence of CDK9-CYCLIN T1 (O60563 whole entry partner): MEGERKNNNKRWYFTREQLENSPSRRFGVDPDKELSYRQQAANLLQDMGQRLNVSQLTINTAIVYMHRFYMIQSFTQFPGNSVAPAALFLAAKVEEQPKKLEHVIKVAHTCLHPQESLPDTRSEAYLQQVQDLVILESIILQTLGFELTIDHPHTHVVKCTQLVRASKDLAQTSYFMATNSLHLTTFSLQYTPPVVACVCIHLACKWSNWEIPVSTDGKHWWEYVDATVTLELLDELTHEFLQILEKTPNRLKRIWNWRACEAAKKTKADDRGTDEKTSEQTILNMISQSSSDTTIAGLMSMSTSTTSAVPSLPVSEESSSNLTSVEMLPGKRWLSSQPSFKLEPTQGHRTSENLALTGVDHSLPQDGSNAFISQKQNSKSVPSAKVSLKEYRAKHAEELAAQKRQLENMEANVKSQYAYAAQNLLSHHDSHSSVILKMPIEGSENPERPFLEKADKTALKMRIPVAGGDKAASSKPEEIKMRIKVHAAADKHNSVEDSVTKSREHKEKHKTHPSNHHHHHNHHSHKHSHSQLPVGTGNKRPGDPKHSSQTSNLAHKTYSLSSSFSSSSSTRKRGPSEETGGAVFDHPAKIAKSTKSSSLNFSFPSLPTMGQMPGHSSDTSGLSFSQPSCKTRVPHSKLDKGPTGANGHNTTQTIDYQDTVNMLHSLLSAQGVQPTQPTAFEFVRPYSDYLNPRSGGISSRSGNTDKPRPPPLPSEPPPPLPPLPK
Protocol for in vitro: as §1

In the case of `CC(C)n1c(C(C)(C)O)nc2c(F)cc(-c3nc(N[C@@H]4C[C@H]5CO[C@H](O5)[C@H]4O)ncc3Cl)cc21` [Compound 1, (1S,3R,4S,5R)-3-((5-chloro-4-(4-fluoro-2-(2-hydroxypropan-2-yl)-1-isopropyl-1H-benzo[d]imidazol-6-yl)pyrimidin-2-yl)amino)-6,8-dioxabicyclo[3.2.1]octan-4-ol], the IC50 on CDK9-CYCLIN T1 was determined as 4.88 µM. Besides, in “in vitro”, the CLint scaled at 1 μM came out at 6.4 mL/min/kg and the half-life at 1 μM stood at 9.26 h.
As for `CC(C)n1c(C(C)(C)O)nc2c(F)cc(-c3nc(N[C@@H]4CCOC[C@H]4O)ncc3Cl)cc21` [Reference Compound, PF-07220060, reference compound], the IC50 at CDK9-CYCLIN T1 came to 1.88 µM. The “t1/2” value in series [1] came out at 2.057 h.
